This is an account of results in patent US6638912B2, “Peptide compositions mimicking TGF-β activity” (The Regents of the University of California, priority 1995, dated 2003).

Where two headings read alike, the source gives them in different places.

The test system of experiment [1] is NRK-49 F normal rat kidney fibroblasts. The experiment can be described thus: Growth and colony formation by NRK-49 F fibroblasts in soft agar. The class given is cell-based. As for the experimental part:
The original assay for TGF-β, the ability to promote anchorage independent growth of normal fibroblasts is still one of the hallmarks of TGF-β activity. NRK-49 F fibroblasts were grown at 37° C. in DEM supplemented with 10% fetal calf serum. […] To this, either 100 nM TGF-β (positive control) or 100 nM cytomodulin was added. NRK49 F fibroblasts (5×10^4 cells/ml) were mixed with 0.3% agar were plated on the bottom of 35 mm culture dishes. Colony formation was observed starting on day 3 of culture.

For experiment [2] the test system is unchanged. The note with it: in the absence of EGF and PDGF; from Massagu, J. Biol. Chem. 259 (1984); cited from earlier work.
Experiment [3] concerns Mv-1-Lu mink lung epithelial cells. Kind of experiment: Inhibition of DNA synthesis (3H-thymidine incorporation) and proliferation of Mv-1-Lu cells. The class given is cell-based. The note with it: 10−9 to 10−6 M range. How it is done:
The effect of TGF-β and cytomodulin were evaluated by determining the rate of […]thyidine incorporation into total acid-insoluble DNA and cell number. See generally, Sampath et al., Journal of Biological Chemistry, 267, pp. 20352-20362 (1992). DNA synthesis rates were determined in triplicate cultures after 24 hour treatment with various concentrations (10−9 M to 10^−6M) of either TGF-β or cytomodulin (which was synthesized by the Merrifield method) by adding [methyl-^3H]thymidine (2 μCi/ml, 80 Ci/mmol) for 6 hours before the termination of the culture. Incorporation was terminated by aspiration of the medium, and after washing three times with phosphate-buffered saline, the trichloroacetic acid (10%)-precipitated radioactive DNA was extracted with 1.0% (w/v) sodium dodecyl sulfate, 0.1 M NaOH and quantitated by liquid scintillation counting. For cell number determination, 1×10^5 cells were plated in flasks in MEM containing 10% FBS, and after 24 hours, the growth medium was replaced with serum-free medium containing various conceptions of TGF-β and cytomodulin. Triplicate cultures were harvested every 24 hours for the duration of 7 days, and the cell number was determined by counting cells released by trypsin digestion in a fixed volume hemacytometer.
The numbers shown at the various concentration are the ratio of the inhibition rate of the peptide being tested over the inhibition rate of cytomodulin (SEQ ID NO: 1) at the same concentration.
Tests for bioactivity were conducted as described above for DNA inhibition.
For orientation: Uptake of a labelled nucleoside into DNA is a usual measure of proliferation.

The next experiment has as its system human dermal fibroblasts. The experiment can be described thus: Gene expression in human dermal fibroblasts (Northern analysis). It is filed as cell-based. As for the experimental part: (§1) Total cellular RNA was isolated using essentially the method described by Maniatis. Sambrook et al., Molecular Cloning: A Laboratory Marual, Cold Spring Harbor Laboratory Press, Second Edition (1989). Cells were lysed with 0.5% SDS and 0.1 potassium acetate. The lysate was extracted with phenol and centrifuiged at 5000 rpm for 15 minutes. The aqueous phase was precipitated with 2 volumes ethanol in 0.1 M Tris, pH 8.0 and 0.2 M NaCl. The pellet was resuspended and quantitated by measuring the ultraviolet absorbance at 260 nm. RNA purity was assessed by comparing the ultraviolet absorbance at 260 inm with that at 280 nm.
(§2) RNA (10 μg/lane) was electrophoresed at 3 to 4 v/cm through a 0.7% agarose, 2.2 M formaldehyde denaturing gel. RNA was transferred by capillary transfer to nylon membranes. RNA integrity, gel loading, and transfer efficiency were assessed by methylene blue stained 28S and 18 S bands. The filters were baked at 80° C. for 2 hours to immobilize the RNA. After baking, the filters were hybridized at 65° C. in 0.5 M NaPO4 buffer, pH 7.0, containing 1 mM EDTA, 7% sodium dodecyl sulfate, and 1% bovine serum albumin. cDNA probes were labeled with DDIG […] by the random primer method, using Klenow enzyme. Hybridization for 18 hours at 65° C. followed by washing, was performed.
(§3) Data were analyzed by scanning digoxigenin-dVTP according to manufacturer's procedure (Boehringer Mannheim Biochemica, DIG DNA labelling kit, Cat. No. 1175033).

Experiment [4] relates to human osteogenic sarcoma (HOS) cell line. Kind of experiment: Gene expression in HOS cells (Northern analysis). It is filed as cell-based. As for the experimental part: as §1, §2, §3
The next experiment relates to TGF-β activity. The experiment can be described thus: TGF-β like activity, overall statement, test not specified. It is filed as cell-based.

On to TGF-β, for which the “Colony formation in soft agar” value is “grew colonies” in experiment [1] (100 nM, with EGF and PDGF); “does not induce colony formation” in experiment [2].
“L-I-A-E-A-K (LIAEAK; TGF-beta mimic) [L2]”: the “Inhibition of DNA synthesis / proliferation of Mv-1-Lu cells (in words)” value in experiment [3] is “inhibited the proliferation”. In addition, the “Growth and colony formation of NRK-49F cells in soft agar (in words)” value in experiment [1] is on record as “promoted the growth”. In the experiment on human dermal fibroblasts, the “Expression of TGF-β” value is on record as “increased the expression”, the Expression of collagenase result is “decreased the expression” and the “Expression of type I collagen” value is on record as “increased the expression”. Moreover, in experiment [4], the “Expression of TGF-β” value is “increased the expression”, the “Expression of alkaline phosphatase” value is “increased the expression” and the “Expression of type I collagen” value is given as “increased the expression”. Further, in the experiment on TGF-β activity, the TGF-β like activity result is “at least as much TGF-β like activity as cytomodulin”.
